Data on seven compounds can be found in ChEMBL document CHEMBL4229519, “Design, synthesis, and activity evaluation of novel erythropoietin mimetic peptides” (Bioorg Med Chem Lett, 2018).

SMILES strings stand for the structures. Bridge positions count the residues as written; N and C are the ends. Square brackets hold non-standard residues; d marks the D form. Peptide text beside a SMILES is read from it. 1Nal = N[C@@H](Cc1cccc2ccccc12)C(=O)O; Cit = NC(=O)NCCC[C@H](N)C(=O)O; NMeA = CN[C@@H](C)C(=O)O; Sar = CNCC(=O)O

For data set [1], the system named is Mus musculus. The data set can be described thus: Toxicity in mouse assessed as increase in body weight at 2.1 umol/kg, sc administered once daily for 7 consecutive days measured on day 3 during compound dosing relative to control. Type of data set: organism-based. As to conditions: in vivo; call rule not given here.
Data set [2] relates to Mus musculus. Kind of data set: Toxicity in mouse assessed as increase in body weight at 2.1 umol/kg, sc administered once daily for 7 consecutive days measured on day 5 during compound dosing relative to control. Type of data set: organism-based. As to conditions: in vivo.
Data set [3] deals with Mus musculus. Kind of data set: Toxicity in mouse assessed as increase in body weight at 2.1 umol/kg, sc administered once daily for 7 consecutive days measured on day 7 during compound dosing relative to control. As to conditions: in vivo. Type of data set: organism-based.
Data set [4] has as its system Mus musculus. The data set can be described thus: Toxicity in mouse assessed as body weight at 2.1 umol/kg, sc administered once daily for 7 consecutive days measured on day 1 during compound dosing (reference value: 24.5 +/- 1.1 g). Type of data set: organism-based. To be noted: in vivo.
Data set [5] relates to Mus musculus. The data set can be described thus: Antianemic activity in mouse assessed as RBC level at 2.1 umol/kg, sc administered once daily for 7 consecutive days (reference value: 8.74 +/- 0.58 10^12/L). Type of data set: functional.
Data set [6] concerns Mus musculus. The data set can be described thus: Antianemic activity in mouse assessed as hematocrit by measuring ratio of RBC volume to total blood volume at 2.1 umol/kg, sc administered once daily for 7 consecutive days (reference value: 0.476 +/- 0.024). It is filed as functional.
Data set [7] relates to Mus musculus. Kind of data set: Antianemic activity in mouse assessed as hemoglobin level at 2.1 umol/kg, sc administered once daily for 7 consecutive days (reference value: 135.1 +/- 9.5 g/L). Type of data set: functional.
For data set [8], the system named is Mus musculus. Kind of data set: Antianemic activity in mouse assessed as reticulocyte level at 2.1 umol/kg, sc administered once daily for 7 consecutive days (reference value: 0.46 +/- 0.11 10^12/L). Type of data set: functional.
The subject of data set [9] is Mus musculus. Kind of data set: Effect on WBC level in mouse at 2.1 umol/kg, sc administered once daily for 7 consecutive days (reference value: 5.84 +/- 1.43 10^9/L). As to conditions: in vivo. It is filed as ADME, organism-based.
For a further data set, the target named is T1, Erythropoietin receptor (Homo sapiens, UniProt P19235).
T1 sequence (P19235 whole entry): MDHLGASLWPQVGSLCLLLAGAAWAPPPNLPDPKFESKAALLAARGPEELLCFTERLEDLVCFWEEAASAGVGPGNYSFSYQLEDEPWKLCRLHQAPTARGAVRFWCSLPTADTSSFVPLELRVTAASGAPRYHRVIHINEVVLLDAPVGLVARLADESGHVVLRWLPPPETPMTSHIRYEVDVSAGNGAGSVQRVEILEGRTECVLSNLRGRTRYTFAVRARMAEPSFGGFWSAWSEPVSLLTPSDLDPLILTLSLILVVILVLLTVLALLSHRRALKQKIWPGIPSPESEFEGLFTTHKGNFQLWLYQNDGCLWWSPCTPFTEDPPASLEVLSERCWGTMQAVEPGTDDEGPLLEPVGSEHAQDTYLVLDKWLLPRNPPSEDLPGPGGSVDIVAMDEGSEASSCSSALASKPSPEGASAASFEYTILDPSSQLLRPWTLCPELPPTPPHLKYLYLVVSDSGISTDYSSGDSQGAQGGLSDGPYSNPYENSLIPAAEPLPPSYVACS
The data set can be described thus: Agonist activity at EPO receptor in human TF1 cells assessed as induction of cell proliferation after 48 hrs by MTT assay. Type of data set: cell-based. A general note: Formazan colour is commonly taken as a measure of viable cells.

Regarding `CC[C@H](C)[C@@H]1NC(=O)[C@@H]2CCCN2C(=O)CNC(=O)[C@H](CCSC)NC(=O)[C@H](Cc2cnc[nH]2)NC(=O)[C@@H](NC(=O)[C@H](C)NC(=O)[C@H](Cc2ccc(O)cc2)NC(=O)[C@H](CC(C)C)NC(=O)CNC(=O)CNC(C)=O)CSSC[C@@H](C(=O)N[C@@H](CCC(N)=O)C(=O)N2CCC[C@H]2C(=O)N[C@@H](CC(C)C)C(=O)N[C@@H](CCCNC(N)=O)C(=O)N(C)CC(=O)N[C@@H](CCCCN)C(N)=O)NC(=O)[C@H](C(C)C)NC(=O)[C@H](Cc2cccc3ccccc23)NC(=O)[C@H]([C@@H](C)O)NC1=O` (Ac-GGLYACHMGPIT[1Nal]VCQPL[Cit][Sar]K-NH2; disulfide 6-15), the Activity was found to be 11.7% with Mus musculus [1]; 16.9% in the data set on Mus musculus [2]; 21.7% in the data set on Mus musculus [3]; 25.5 g in the data set with Mus musculus [4]; 9.67 ×10¹² /L in the data set with Mus musculus [5]; 158.1 g/L in the data set with Mus musculus [7]. Also, the Activity in the data set with Mus musculus [8] is 0.89 ×10¹² /L; in the data set with Mus musculus [9], 6.48 ×10⁹ /L. Also, in the data set with Mus musculus [6], the Ratio worked out at 0.535.
As for `CC[C@H](C)[C@@H]1NC(=O)[C@H](C)N(C)C(=O)CNC(=O)[C@H](CCSC)NC(=O)[C@H](Cc2cnc[nH]2)NC(=O)[C@@H](NC(=O)[C@H](C)NC(=O)[C@H](Cc2ccc(O)cc2)NC(=O)[C@H](CC(C)C)NC(=O)CNC(=O)CNC(C)=O)CSSC[C@@H](C(=O)N[C@@H](CCC(N)=O)C(=O)N2CCC[C@H]2C(=O)N[C@@H](CC(C)C)C(=O)N[C@@H](CCCNC(=N)N)C(=O)N(C)CC(=O)N[C@@H](CCCCN)C(N)=O)NC(=O)[C@H](C(C)C)NC(=O)[C@H](Cc2cccc3ccccc23)NC(=O)[C@H]([C@@H](C)O)NC1=O` (Ac-GGLYACHMG[NMeA]IT[1Nal]VCQPLR[Sar]K-NH2; disulfide 6-15), the Activity in the data set with Mus musculus [1] came to 12.7%; with Mus musculus [2] it was 19.5%; in the data set on Mus musculus [3], 27.2%; in the data set with Mus musculus [4], 24.7 g; in the data set with Mus musculus [5] it was 9.15 ×10¹² /L; in the data set on Mus musculus [7], 144.4 g/L. In addition, the Activity is recorded as 0.66 ×10¹² /L with Mus musculus [8] and 5.64 ×10⁹ /L with Mus musculus [9]. The Ratio in the data set on Mus musculus [6] is 0.498.
In the case of `CC[C@H](C)[C@@H]1NC(=O)[C@@H]2CCCN2C(=O)CNC(=O)[C@@H](CCSC)NC(=O)[C@H](Cc2cnc[nH]2)NC(=O)[C@@H](NC(=O)[C@H](C)NC(=O)[C@H](Cc2ccc(O)cc2)NC(=O)[C@H](CC(C)C)NC(=O)CNC(=O)CNC(C)=O)CSSC[C@@H](C(=O)N[C@@H](CCC(N)=O)C(=O)N2CCC[C@H]2C(=O)N[C@@H](CC(C)C)C(=O)N[C@@H](CCCNC(=N)N)C(=O)N(C)CC(=O)N[C@@H](CCCCN)C(N)=O)NC(=O)[C@H](C(C)C)NC(=O)[C@H](Cc2cccc3ccccc23)NC(=O)[C@H]([C@@H](C)O)NC1=O`, the EC50 result on Erythropoietin receptor is recorded as “Not Active”.
Same read-out and setting: then `CC[C@H](C)[C@@H]1NC(=O)[C@@H]2CCCN2C(=O)CNC(=O)[C@H](CCSC)NC(=O)[C@H](Cc2cnc[nH]2)NC(=O)[C@@H](NC(=O)[C@@H](C)NC(=O)[C@H](Cc2ccc(O)cc2)NC(=O)[C@H](CC(C)C)NC(=O)CNC(=O)CNC(C)=O)CSSC[C@@H](C(=O)N[C@@H](CCC(N)=O)C(=O)N2CCC[C@H]2C(=O)N[C@@H](CC(C)C)C(=O)N[C@@H](CCCNC(=N)N)C(=O)N(C)CC(=O)N[C@@H](CCCCN)C(N)=O)NC(=O)[C@H](C(C)C)NC(=O)[C@H](Cc2cccc3ccccc23)NC(=O)[C@H]([C@@H](C)O)NC1=O`, with “Not Active”.
For `CC[C@H](C)[C@@H]1NC(=O)[C@@H]2CCCN2C(=O)CNC(=O)[C@H](CCSC)NC(=O)[C@H](Cc2cnc[nH]2)NC(=O)[C@@H](NC(=O)[C@H](C)NC(=O)[C@H](Cc2ccc(O)cc2)NC(=O)[C@H](CC(C)C)NC(=O)CNC(=O)CNC(C)=O)CSSC[C@@H](C(=O)N[C@@H](CCC(N)=O)C(=O)N2CCC[C@H]2C(=O)N[C@@H](CC(C)C)C(=O)N[C@@H](CCCNC(=N)N)C(=O)N(C)CC(=O)N[C@@H](CCCCN)C(N)=O)NC(=O)[C@H](C(C)C)NC(=O)[C@H](Cc2cccc3ccccc23)NC(=O)[C@H]([C@@H](C)O)NC1=O`, the Activity is 12.5% in the data set on Mus musculus [1]; 16.3% in the data set with Mus musculus [2]; 22.6% in the data set on Mus musculus [3]; 24.9 g in the data set on Mus musculus [4]; 9.17 ×10¹² /L with Mus musculus [5]; 149.9 g/L in the data set on Mus musculus [7]. The figures for the Activity in the data set with Mus musculus [8] and in the data set with Mus musculus [9] were 0.7 ×10¹² /L and 5.11 ×10⁹ /L, respectively. For the same compound, the Ratio in the data set on Mus musculus [6] was determined as 0.493.
Take `CC[C@H](C)[C@@H]1NC(=O)[C@@H]2CCCN2C(=O)CNC(=O)[C@H](CCSC)NC(=O)[C@H](Cc2cnc[nH]2)NC(=O)[C@@H](NC(=O)[C@H](C)NC(=O)[C@@H](Cc2ccc(O)cc2)NC(=O)[C@H](CC(C)C)NC(=O)CNC(=O)CNC(C)=O)CSSC[C@@H](C(=O)N[C@@H](CCC(N)=O)C(=O)N2CCC[C@H]2C(=O)N[C@@H](CC(C)C)C(=O)N[C@@H](CCCNC(=N)N)C(=O)N(C)CC(=O)N[C@@H](CCCCN)C(N)=O)NC(=O)[C@H](C(C)C)NC(=O)[C@H](Cc2cccc3ccccc23)NC(=O)[C@H]([C@@H](C)O)NC1=O`: the EC50 entry at Erythropoietin receptor was “Not Active”.
Take `CC[C@H](C)[C@@H]1NC(=O)[C@@H]2CCCN2C(=O)CNC(=O)[C@H](CCSC)NC(=O)[C@H](Cc2cnc[nH]2)NC(=O)[C@@H](NC(=O)[C@H](C)NC(=O)[C@H](Cc2ccc(O)cc2)NC(=O)[C@H](CC(C)C)NC(=O)CNC(=O)CNC(C)=O)CSSC[C@@H](C(=O)N[C@@H](CCC(N)=O)C(=O)N(C)[C@@H](C)C(=O)N[C@@H](CC(C)C)C(=O)N[C@@H](CCCNC(=N)N)C(=O)N(C)CC(=O)N[C@@H](CCCCN)C(N)=O)NC(=O)[C@H](C(C)C)NC(=O)[C@H](Cc2cccc3ccccc23)NC(=O)[C@H]([C@@H](C)O)NC1=O` (Ac-GGLYACHMGPIT[1Nal]VCQ[NMeA]LR[Sar]K-NH2; disulfide 6-15): the Activity was determined as 11% in the data set with Mus musculus [1]; 15.3% in the data set with Mus musculus [2]; 19.1% with Mus musculus [3]; 24.7 g in the data set on Mus musculus [4]; 9.14 ×10¹² /L with Mus musculus [5]; 146.4 g/L in the data set with Mus musculus [7]. For the same compound, the Activity came out at 0.65 ×10¹² /L in the data set on Mus musculus [8] and 5.45 ×10⁹ /L in the data set on Mus musculus [9]. Moreover, the Ratio with Mus musculus [6] was 0.493.
